settings: reported in Psychobiology, 21:101-108; cited from earlier work

Row | SMILES | spatial learning in the Morris watermaze
1 | COC(=O)c1cc2c(cn1)[nH]c1ccccc12 [β-CCM] | enhanced spatial learning

settings: background statement; cited from earlier work

Row | SMILES | proconvulsant activity
2 | COC(=O)c1cc2c(cn1)[nH]c1ccccc12 [β-CCM] | proconvulsant

settings: not given

Row | SMILES | melting point [°C]
3 | Cc1cc(-c2nncc3c(-c4ccccc4)c(OCc4ncn(C)n4)nn23)no1 | 194 to 196
4 | Cc1cc(-c2nncc3c(C(C)(C)C)c(OCc4ncn(C)n4)nn23)no1 | 161 to 164
5 | Cc1cc(-c2nncc3c(C(C)(C)C)c(OCc4ccccn4)nn23)no1 | 175 to 178
6 | Cc1cc(-c2nncc3c(C(C)(C)C)c(OCc4cccnc4)nn23)no1 | 139 to 141
7 | Cc1cc(-c2nncc3c(C(C)(C)C)c(OCc4ccncc4)nn23)no1 | 119 to 121
8 | Cc1cc(-c2nncc3c(Br)c(OCc4ncnn4C)nn23)no1 | 239 to 241
9 | Cc1cc(-c2nncc3c(-c4ccco4)c(OCc4ncnn4C)nn23)no1 | 226 to 228
